≈ marks a conversion by molar mass, not a printed value.
System: HepG2
Test: Cytotoxicity against Homo sapiens (human) HepG2 cells after 48 hr by MTT assay
Type: functional, cell-based
Details: Homo sapiens, HepG2, 48 h; read-out: IC50; call rule not given here

Structure (SMILES) | IC50 [µg/mL]
Cc1ccc2ccc3c(c2n1)OC(N)=C(C#N)C3c1ccc(Br)cc1 (stereo not drawn) | 5.5 (≈ 14 µM)
Cc1ccc2ccc3c(c2n1)OC(/N=C/N)=C(C#N)C3c1ccc(Br)cc1 (stereo not drawn) | > 50

Same assay, conditions: hepg2

Structure (SMILES) | IC50
N#CC1=C(N)Oc2c(ccc3cccnc23)C1c1ccc(Br)cc1 (stereo not drawn) | Not Active

System: HepG2
Test: Cytotoxicity against Homo sapiens (human) HepG2 cells assessed as cell viability at 1.56 ug/ml after 48 hr by MTT assay relative to control
Type: functional
Details: HepG2, 48 h, read-out: Activity

Structure (SMILES) | viability at 1.56 µg/mL [%]
N#CC1=C(N)Oc2c(ccc3cccnc23)C1c1ccc(Br)cc1 (stereo not drawn) | 100
Cc1ccc2ccc3c(c2n1)OC(N)=C(C#N)C3c1ccc(Br)cc1 (stereo not drawn) | 77.5
Cc1ccc2ccc3c(c2n1)OC(/N=C/N)=C(C#N)C3c1ccc(Br)cc1 (stereo not drawn) | 98.8

System: HepG2
Test: Cytotoxicity against Homo sapiens (human) HepG2 cells assessed as cell viability at 3.125 ug/ml after 48 hr by MTT assay relative to control
Type: functional
Details: HepG2, 48 h, read-out: Activity

Structure (SMILES) | viability at 3.125 µg/mL [%]
N#CC1=C(N)Oc2c(ccc3cccnc23)C1c1ccc(Br)cc1 (stereo not drawn) | 100
Cc1ccc2ccc3c(c2n1)OC(N)=C(C#N)C3c1ccc(Br)cc1 (stereo not drawn) | 64
Cc1ccc2ccc3c(c2n1)OC(/N=C/N)=C(C#N)C3c1ccc(Br)cc1 (stereo not drawn) | 89.3

System: HepG2
Test: Cytotoxicity against Homo sapiens (human) HepG2 cells assessed as cell viability at 6.25 ug/ml after 48 hr by MTT assay relative to control
Type: functional
Details: HepG2, 48 h, read-out: Activity

Structure (SMILES) | viability at 6.25 µg/mL [%]
N#CC1=C(N)Oc2c(ccc3cccnc23)C1c1ccc(Br)cc1 (stereo not drawn) | 100
Cc1ccc2ccc3c(c2n1)OC(N)=C(C#N)C3c1ccc(Br)cc1 (stereo not drawn) | 44.9
Cc1ccc2ccc3c(c2n1)OC(/N=C/N)=C(C#N)C3c1ccc(Br)cc1 (stereo not drawn) | 81.2

System: HepG2
Test: Cytotoxicity against Homo sapiens (human) HepG2 cells assessed as cell viability at 12.5 ug/ml after 48 hr by MTT assay relative to control
Type: functional
Details: HepG2, 48 h, read-out: Activity

Structure (SMILES) | viability at 12.5 µg/mL [%]
N#CC1=C(N)Oc2c(ccc3cccnc23)C1c1ccc(Br)cc1 (stereo not drawn) | 98.3
Cc1ccc2ccc3c(c2n1)OC(N)=C(C#N)C3c1ccc(Br)cc1 (stereo not drawn) | 39.6
Cc1ccc2ccc3c(c2n1)OC(/N=C/N)=C(C#N)C3c1ccc(Br)cc1 (stereo not drawn) | 65.5

System: HepG2
Test: Cytotoxicity against Homo sapiens (human) HepG2 cells assessed as cell viability at 25 ug/ml after 48 hr by MTT assay relative to control
Type: functional
Details: HepG2, 48 h, read-out: Activity

Structure (SMILES) | viability at 25 µg/mL [%]
N#CC1=C(N)Oc2c(ccc3cccnc23)C1c1ccc(Br)cc1 (stereo not drawn) | 96.3
Cc1ccc2ccc3c(c2n1)OC(N)=C(C#N)C3c1ccc(Br)cc1 (stereo not drawn) | 29.3
Cc1ccc2ccc3c(c2n1)OC(/N=C/N)=C(C#N)C3c1ccc(Br)cc1 (stereo not drawn) | 60.7

System: HepG2
Test: Cytotoxicity against Homo sapiens (human) HepG2 cells assessed as cell viability at 50 ug/ml after 48 hr by MTT assay relative to control
Type: functional
Details: HepG2, 48 h, read-out: Activity

Structure (SMILES) | viability at 50 µg/mL [%]
N#CC1=C(N)Oc2c(ccc3cccnc23)C1c1ccc(Br)cc1 (stereo not drawn) | 91.8
Cc1ccc2ccc3c(c2n1)OC(N)=C(C#N)C3c1ccc(Br)cc1 (stereo not drawn) | 22
Cc1ccc2ccc3c(c2n1)OC(/N=C/N)=C(C#N)C3c1ccc(Br)cc1 (stereo not drawn) | 52.3

System: not listed separately
Test: Cytotoxicity against Homo sapiens (human) HCT cells after 48 hr by MTT assay
Type: functional, cell-based
Details: not given

Structure (SMILES) | IC50 [µg/mL]
N#CC1=C(N)Oc2c(ccc3cccnc23)C1c1ccc(Br)cc1 (stereo not drawn) | 43.7 (≈ 116 µM)
Cc1ccc2ccc3c(c2n1)OC(N)=C(C#N)C3c1ccc(Br)cc1 (stereo not drawn) | 22.8 (≈ 58.1 µM)
Cc1ccc2ccc3c(c2n1)OC(/N=C/N)=C(C#N)C3c1ccc(Br)cc1 (stereo not drawn) | 6.2 (≈ 14.8 µM)

System: not listed separately
Test: Cytotoxicity against Homo sapiens (human) HCT cells assessed as cell viability at 1.56 ug/ml after 48 hr by MTT assay relative to control
Type: functional
Details: read-out: Activity

Structure (SMILES) | viability at 1.56 µg/mL [%]
N#CC1=C(N)Oc2c(ccc3cccnc23)C1c1ccc(Br)cc1 (stereo not drawn) | 100
Cc1ccc2ccc3c(c2n1)OC(N)=C(C#N)C3c1ccc(Br)cc1 (stereo not drawn) | 100
Cc1ccc2ccc3c(c2n1)OC(/N=C/N)=C(C#N)C3c1ccc(Br)cc1 (stereo not drawn) | 86.9

System: not listed separately
Test: Cytotoxicity against Homo sapiens (human) HCT cells assessed as cell viability at 6.25 ug/ml after 48 hr by MTT assay relative to control
Type: functional
Details: read-out: Activity

Structure (SMILES) | viability at 6.25 µg/mL [%]
N#CC1=C(N)Oc2c(ccc3cccnc23)C1c1ccc(Br)cc1 (stereo not drawn) | 97.8
Cc1ccc2ccc3c(c2n1)OC(N)=C(C#N)C3c1ccc(Br)cc1 (stereo not drawn) | 66.6
Cc1ccc2ccc3c(c2n1)OC(/N=C/N)=C(C#N)C3c1ccc(Br)cc1 (stereo not drawn) | 49.8

System: MCF7
Test: Cytotoxicity against Homo sapiens (human) MCF7 cells assessed as cell viability at 1.56 ug/ml after 48 hr by MTT assay relative to control
Type: functional
Details: MCF7, 48 h, read-out: Activity

Structure (SMILES) | viability at 1.56 µg/mL [%]
N#CC1=C(N)Oc2c(ccc3cccnc23)C1c1ccc(Br)cc1 (stereo not drawn) | 94.8
Cc1ccc2ccc3c(c2n1)OC(N)=C(C#N)C3c1ccc(Br)cc1 (stereo not drawn) | 93.9
Cc1ccc2ccc3c(c2n1)OC(/N=C/N)=C(C#N)C3c1ccc(Br)cc1 (stereo not drawn) | 100

System: MCF7
Test: Cytotoxicity against Homo sapiens (human) MCF7 cells assessed as cell viability at 3.125 ug/ml after 48 hr by MTT assay relative to control
Type: functional
Details: MCF7, 48 h, read-out: Activity

Structure (SMILES) | viability at 3.125 µg/mL [%]
N#CC1=C(N)Oc2c(ccc3cccnc23)C1c1ccc(Br)cc1 (stereo not drawn) | 83.9
Cc1ccc2ccc3c(c2n1)OC(N)=C(C#N)C3c1ccc(Br)cc1 (stereo not drawn) | 82.3
Cc1ccc2ccc3c(c2n1)OC(/N=C/N)=C(C#N)C3c1ccc(Br)cc1 (stereo not drawn) | 97.3

System: MCF7
Test: Cytotoxicity against Homo sapiens (human) MCF7 cells assessed as cell viability at 12.5 ug/ml after 48 hr by MTT assay relative to control
Type: functional
Details: MCF7, 48 h, read-out: Activity

Structure (SMILES) | viability at 12.5 µg/mL [%]
N#CC1=C(N)Oc2c(ccc3cccnc23)C1c1ccc(Br)cc1 (stereo not drawn) | 70
Cc1ccc2ccc3c(c2n1)OC(N)=C(C#N)C3c1ccc(Br)cc1 (stereo not drawn) | 71.8
Cc1ccc2ccc3c(c2n1)OC(/N=C/N)=C(C#N)C3c1ccc(Br)cc1 (stereo not drawn) | 81.2

System: MCF7
Test: Cytotoxicity against Homo sapiens (human) MCF7 cells assessed as cell viability at 6.25 ug/ml after 48 hr by MTT assay relative to control
Type: functional
Details: MCF7, 48 h, read-out: Activity

Structure (SMILES) | viability at 6.25 µg/mL [%]
N#CC1=C(N)Oc2c(ccc3cccnc23)C1c1ccc(Br)cc1 (stereo not drawn) | 75.7
Cc1ccc2ccc3c(c2n1)OC(N)=C(C#N)C3c1ccc(Br)cc1 (stereo not drawn) | 75.2
Cc1ccc2ccc3c(c2n1)OC(/N=C/N)=C(C#N)C3c1ccc(Br)cc1 (stereo not drawn) | 89.8

System: MCF7
Test: Cytotoxicity against Homo sapiens (human) MCF7 cells assessed as cell viability at 50 ug/ml after 48 hr by MTT assay relative to control
Type: functional
Details: MCF7, 48 h, read-out: Activity

Structure (SMILES) | viability at 50 µg/mL [%]
N#CC1=C(N)Oc2c(ccc3cccnc23)C1c1ccc(Br)cc1 (stereo not drawn) | 39.1
Cc1ccc2ccc3c(c2n1)OC(N)=C(C#N)C3c1ccc(Br)cc1 (stereo not drawn) | 41.2
Cc1ccc2ccc3c(c2n1)OC(/N=C/N)=C(C#N)C3c1ccc(Br)cc1 (stereo not drawn) | 56.2

System: MCF7
Test: Cytotoxicity against Homo sapiens (human) MCF7 cells assessed as cell viability at 25 ug/ml after 48 hr by MTT assay relative to control
Type: functional
Details: MCF7, 48 h, read-out: Activity

Structure (SMILES) | viability at 25 µg/mL [%]
N#CC1=C(N)Oc2c(ccc3cccnc23)C1c1ccc(Br)cc1 (stereo not drawn) | 58.9
Cc1ccc2ccc3c(c2n1)OC(N)=C(C#N)C3c1ccc(Br)cc1 (stereo not drawn) | 62.3
Cc1ccc2ccc3c(c2n1)OC(/N=C/N)=C(C#N)C3c1ccc(Br)cc1 (stereo not drawn) | 69.6

System: not listed separately
Test: Cytotoxicity against Homo sapiens (human) HCT cells assessed as cell viability at 3.125 ug/ml after 48 hr by MTT assay relative to control
Type: functional
Details: read-out: Activity

Structure (SMILES) | viability at 3.125 µg/mL [%]
N#CC1=C(N)Oc2c(ccc3cccnc23)C1c1ccc(Br)cc1 (stereo not drawn) | 100
Cc1ccc2ccc3c(c2n1)OC(N)=C(C#N)C3c1ccc(Br)cc1 (stereo not drawn) | 88
Cc1ccc2ccc3c(c2n1)OC(/N=C/N)=C(C#N)C3c1ccc(Br)cc1 (stereo not drawn) | 65

System: not listed separately
Test: Cytotoxicity against Homo sapiens (human) HCT cells assessed as cell viability at 12.5 ug/ml after 48 hr by MTT assay relative to control
Type: functional
Details: read-out: Activity

Structure (SMILES) | viability at 12.5 µg/mL [%]
N#CC1=C(N)Oc2c(ccc3cccnc23)C1c1ccc(Br)cc1 (stereo not drawn) | 91.2
Cc1ccc2ccc3c(c2n1)OC(N)=C(C#N)C3c1ccc(Br)cc1 (stereo not drawn) | 58.2
Cc1ccc2ccc3c(c2n1)OC(/N=C/N)=C(C#N)C3c1ccc(Br)cc1 (stereo not drawn) | 42.9

System: not listed separately
Test: Cytotoxicity against Homo sapiens (human) HCT cells assessed as cell viability at 25 ug/ml after 48 hr by MTT assay relative to control
Type: functional
Details: read-out: Activity

Structure (SMILES) | viability at 25 µg/mL [%]
N#CC1=C(N)Oc2c(ccc3cccnc23)C1c1ccc(Br)cc1 (stereo not drawn) | 78.4
Cc1ccc2ccc3c(c2n1)OC(N)=C(C#N)C3c1ccc(Br)cc1 (stereo not drawn) | 48.8
Cc1ccc2ccc3c(c2n1)OC(/N=C/N)=C(C#N)C3c1ccc(Br)cc1 (stereo not drawn) | 34.1

System: not listed separately
Test: Cytotoxicity against Homo sapiens (human) HCT cells assessed as cell viability at 50 ug/ml after 48 hr by MTT assay relative to control
Type: functional
Details: read-out: Activity

Structure (SMILES) | viability at 50 µg/mL [%]
N#CC1=C(N)Oc2c(ccc3cccnc23)C1c1ccc(Br)cc1 (stereo not drawn) | 42.4
Cc1ccc2ccc3c(c2n1)OC(N)=C(C#N)C3c1ccc(Br)cc1 (stereo not drawn) | 36.6
Cc1ccc2ccc3c(c2n1)OC(/N=C/N)=C(C#N)C3c1ccc(Br)cc1 (stereo not drawn) | 24.8

System: MCF7
Test: Cytotoxicity against Homo sapiens (human) MCF7 cells after 48 hr by MTT assay
Type: functional, cell-based
Details: MCF7, 48 h

Structure (SMILES) | IC50 [µg/mL]
N#CC1=C(N)Oc2c(ccc3cccnc23)C1c1ccc(Br)cc1 (stereo not drawn) | 34.8 (≈ 92 µM)
Cc1ccc2ccc3c(c2n1)OC(N)=C(C#N)C3c1ccc(Br)cc1 (stereo not drawn) | 38.9 (≈ 99.2 µM)
Cc1ccc2ccc3c(c2n1)OC(/N=C/N)=C(C#N)C3c1ccc(Br)cc1 (stereo not drawn) | > 50

— ChEMBL document CHEMBL3045319, “Synthesis, antitumor activity, and structureactivity relationship of some 4H-pyrano[3,2-h]quinoline and 7H-pyrimido[4,5:6,5]pyrano[3,2-h]quinoline derivatives” (Med Chem Res, 2013)
